Reference: PMC8509398, “Proteolytic Cleavage of Bioactive Peptides and Protease-Activated Receptors in Acute and Post-Colitis” (International Journal of Molecular Sciences, 2021)
Residues, ends and D or L forms follow the SMILES beside them.

How the values were obtained:
[1] = biological target: thrombin (Homo sapiens, UniProt P00734); experiment: Cleavage of peptides by purified thrombin, MALDI-TOF/TOF; conditions: 25 nM protease, 10 µM peptide; for Incubation time at which the first cleavage or decrease of the full-length peptide was observed, thrombin: 37 °C, time points 2, 5, 10, 30 min; for TL disarming (D), Thrombin / TL unmasking (U), Thrombin: PAR-based peptides, 37 °C, 2, 5, 10 and 30 min
Excerpt: (§1) Trypsin-like proteases included in the experiments are trypsin-1, -2 and -3, tryptase (Enzo LifeSciences), thrombin (Sigma-Aldrich) and cathepsin G (Sigma-Aldrich). Trypsin-1, -2 and -3 were produced as described by Koistinen et al. and Wu et al.. Two elastase-like enzymes, neutrophil elastase (Enzo LifeSciences, Farmingdale, NY, USA) and pancreatic elastase I (Sigma-Aldrich) were included as well. All enzymes were from human origin except for pancreatic elastase from porcine pancreas.
(§2) Reaction mixtures with purified enzymes were compiled in an identical way. Each mixture contained an equimolar concentration of protease (25 nM based on) and 10 µM peptide of interest and was incubated for 2, 5, 10 and 30 min at 37 °C. Substance P was added as the standard peptide except for the reaction mixtures with substance P or bradykinin as the peptide of interest, where angiotensin II (Bachem) was added.
(§3) The TFA mixtures were thawed on ice and desalted using C18 zip-tips (Merck Millipore®, Burlington, MA, USA) with a capacity of 5 µg protein. Retained peptide fragments were eluted directly on the MALDI target plate. Next, 0.5 µL of a 2.5 mg/mL α-cyano-4-hydroxycinnamic acid (Sigma-Aldrich) matrix solution (in 70% acetonitrile, 0.1% TFA) was spotted on top of the sample. A 6-Peptide mixture Kit (AB Sciex, Framingham, MA, USA) containing bradykinin (2–9), angiotensin I, glu1-fibrinopeptide, ACTH (1–17), ACTH (18–39) and ACTH (7–38) was diluted with matrix and spotted on the plate as well.
(§4) MS and MS/MS data for peptide fragment identification were obtained with a MALDI-TOF/TOF instrument (4800 MALDI TOF/TOF™, Applied Biosystems, Waltham, MA, USA) and instrument parameters were set using 4000 Series Explorer™ software. MS spectra were recorded in positive reflector mode in a mass range from 500 to 4000 Da and laser intensity of 4500–4800 Hz. The spectra were calibrated using the calibration mixture mentioned above to a mass tolerance of 0.1 Da. MS/MS spectra were recorded with high-energy collision-induced dissociation and the laser intensity was increased by 10%. Precursor mass m/z 1570.65 (Glu1-Fibrinopeptide from the calibration mixture) was used to calibrate the MS/MS spectra to a mass tolerance of 0.1 Da.
(§5) MS and MS/MS spectra were processed using DataExplorer™ software and the obtained output files were uploaded in the MS-PEP data analyzer (https://bioit.shinyapps.io/PARs/ accessed 10/08/2020) for peptide fragment identification. Identified fragments were confirmed using the MS/MS spectra and mMass 5.5.0 by Martin Strohalm. The relative intensities of the fragments were calculated as the ratio of the intensity of the peak of interest to the intensity of the peak of the standard peptide.

[2] = Cleavage of peptides by colonic tissue lysates from TNBS-induced colitis rat model, MALDI-TOF/TOF; conditions: 10 µM peptide, 20 µg/mL protein, 37 °C; for Processing by colonic samples, in words (comparison of control, post-colitis and acute colitis): rat colonic lysates, up to 30 min, n = 8 per group
Method: Adult male Sprague–Dawley rats (200–225 g; Charles River, Wilmington, MA, USA) were used in a previously described TNBS-induced acute and post-inflammatory model. Rats were housed at constant room temperature (22 ± 2 °C) and humidity (60%) with two rats per cage, unlimited access to water and food and on a 12 h–12 h light/dark cycle.
After an overnight fast, TNBS colitis was induced using a TNBS-enema (4 mg TNBS; Sigma-Aldrich, 50% ethanol) as described previously. Rats were anesthetized with a mixture of ketamine (35 mg/kg i.p.; Ketalar®, Pfizer, New York City, NY, USA) and xylazine (5 mg/kg i.p.; Rompun®, Bayer, Leverkusen, Germany), and the TNBS-enema or 0.9% saline was administered intrarectally using a flexible catheter (18 G, length 4.5 cm) to colitis and control rats, respectively. Animals were kept in a tail-up position for 1 min and were then allowed to recover in their cages with free access to water and food. […] For the post-colitis group (n = 8), a colonoscopy was performed starting from day 10 and repeated every 4 days until complete mucosal healing was observed. The rats were then sacrificed as well and colonic samples were taken.
Colonic lysates were prepared for studying their effects on cleavage patterns of added peptides with a MALDI-TOF/TOF assay. After sacrifice, a sample of approximately 50 mg of distal colon was taken from each rat. The colonic samples were immediately rinsed with Krebs solution, snap-frozen and stored at −80 °C until further processing. Sample preparation started with crushing the colonic samples on dry ice. Liquid nitrogen was used to prevent the loss of enzymatic activity due to temperature increases and the colon powders were stored at −80 °C for further experiments. […] After centrifugation, the supernatants were collected and used immediately to prepare the reaction mixtures, measure proteolytic activities with fluorogenic substrates and determine the protein content with a Bradford assay.
Colonic lysate was added to a peptide of interest to obtain the reaction mixtures with the colonic samples. Lysate and peptide were diluted so each mixture contained 10 µM peptide of interest and 20 µg/mL protein originating from the colonic tissue. These peptide and protein concentrations were based on research from Loew et al. and O’ Donoghue et al.. The mixtures were incubated at 37 °C for several incubation periods between 5 and 30 min. Afterward, the fragmentation reaction was stopped by adding trifluoroacetic acid (TFA; Alfa Aesar™, ThermoFisher, Waltham, MA, USA) to a final concentration of 2% and standard peptide (substance P, bradykinin or PAR3-based peptide) was added in a final concentration of 10 µM. Standard peptides were selected based on the mass of the peptides of interest. For each sample/peptide combination, a starting point was included as well. Here, TFA was added immediately after mixing the reaction constituents. Samples were stored at −80 °C for further MALDI-TOF/TOF experiments.
as §3
MS and MS/MS data for peptide fragment identification were obtained with a MALDI-TOF/TOF instrument (4800 MALDI TOF/TOF™, Applied Biosystems, Waltham, MA, USA) and instrument parameters were set using 4000 Series Explorer™ software. MS spectra were recorded in positive reflector mode in a mass range from 500 to 4000 Da and laser intensity of 4500–4800 Hz.

[3] = biological target: T1, trypsin-3 (Homo sapiens, UniProt P35030); experiment: Cleavage of peptides by purified trypsin-3, MALDI-TOF/TOF; conditions: 25 nM protease, 10 µM peptide; for TL disarming (D), Trypsin-3 / TL unmasking (U), Trypsin-3: PAR-based peptides, 37 °C, 2, 5, 10 and 30 min
T1 sequence (P35030 1-304): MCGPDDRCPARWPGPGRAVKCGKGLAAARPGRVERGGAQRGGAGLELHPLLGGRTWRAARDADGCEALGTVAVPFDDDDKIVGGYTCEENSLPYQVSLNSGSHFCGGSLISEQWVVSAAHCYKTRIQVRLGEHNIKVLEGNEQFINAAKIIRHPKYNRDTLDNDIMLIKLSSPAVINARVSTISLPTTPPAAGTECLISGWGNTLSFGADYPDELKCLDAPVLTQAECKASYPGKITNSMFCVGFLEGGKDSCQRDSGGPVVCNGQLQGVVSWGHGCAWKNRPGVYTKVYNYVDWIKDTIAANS
Excerpt: as §1, §2, §3, §4, §5

[4] = biological target: trypsin-1 (Homo sapiens, UniProt P07477); experiment: Cleavage of peptides by purified trypsin-1, MALDI-TOF/TOF; conditions: 25 nM protease, 10 µM peptide; for Incubation time at which the first cleavage or decrease of the full-length peptide was observed, trypsin-1: 37 °C, time points 2, 5, 10, 30 min; for TL disarming (D), Trypsin-1 / TL unmasking (U), Trypsin-1: PAR-based peptides, 37 °C, 2, 5, 10 and 30 min
Excerpt: as §1, §2, §3, §4, §5

Row | Compound | Incubation time at which the first cleavage or decrease of the full-length peptide was observed, thrombin [1] [min] | TL disarming (D), Thrombin [1] | TL unmasking (U), Thrombin [1] | Number of colonic samples in which the TL-sequence unmasking cleavage was observed, acute colitis ([2]; acute colitis lysates, n = 8, MALDI-TOF/TOF, PAR1-based after 30 min) | Number of colonic samples in which the TL-sequence unmasking cleavage was observed, control ([2]; control lysates, n = 8, MALDI-TOF/TOF, PAR1-based after 30 min) | Number of colonic samples in which the TL-sequence unmasking cleavage was observed, post-colitis ([2]; post-colitis lysates, n = 8, MALDI-TOF/TOF, PAR1-based after 30 min) | Processing by colonic samples, in words (comparison of control, post-colitis and acute colitis) ([2]; MALDI-TOF/TOF) | Incubation time at which the first cleavage or decrease of the full-length peptide was observed, trypsin-3 ([3]; 37 °C, time points 2, 5, 10, 30 min) [min] | TL disarming (D), Trypsin-3 [3] | TL unmasking (U), Trypsin-3 [3] | Incubation time at which the first cleavage or decrease of the full-length peptide was observed, trypsin-1 [4] [min] | TL disarming (D), Trypsin-1 [4] | TL unmasking (U), Trypsin-1 [4] | Incubation time after which processing was significant (decrease of full-length peptide or increase of fragment), acute colitis samples ([2]; rat colonic lysate, acute TNBS colitis, 5-30 min, stopped with 2% TFA, MALDI-TOF/TOF relative intensity vs standard peptide, n = 8 animals) [min] | Incubation time after which processing was significant (decrease of full-length peptide or increase of fragment), control samples ([2]; rat colonic lysate, control, 5-30 min, stopped with 2% TFA, MALDI-TOF/TOF relative intensity vs standard peptide, n = 8 animals) | Incubation time after which processing was significant (decrease of full-length peptide or increase of fragment), post-colitis samples ([2]; rat colonic lysate, post-colitis, 5-30 min, stopped with 2% TFA, MALDI-TOF/TOF relative intensity vs standard peptide, n = 8 animals)
1 | CC[C@H](C)[C@H](NC(=O)[C@H](CC(C)C)NC(=O)[C@H](CO)NC(=O)[C@H](CCCNC(=N)N)NC(=O)CNC(=O)[C@H](CCCCN)NC(=O)[C@H](CO)NC(=O)[C@H](CO)NC(=O)[C@H](CCCNC(=N)N)NC(=O)[C@H](CC(N)=O)NC(=O)[C@@H](NC(=O)CNC(=O)[C@H](CCC(N)=O)NC(=O)[C@@H](NC(=O)[C@@H](N)[C@@H](C)O)[C@@H](C)CC)[C@@H](C)O)C(=O)NCC(=O)N[C@@H](CCCCN)C(=O)N[C@H](C(=O)N[C@@H](CC(=O)O)C(=O)NCC(=O)N[C@H](C(=O)N[C@@H](CO)C(=O)N[C@@H](Cc1c[nH]cn1)C(=O)N[C@H](C(N)=O)C(C)C)[C@@H](C)O)C(C)C [PAR2-based] (H-TIQGTNRSSKGRSLIGKVDGTSHV-NH2) | > 30 | − | − | four out of eight | two out of eight | three out of eight | no differences | > 30 | − | − | 2 | − | +++ (ultrafast processing within 2 min) |  |  | 
2 | CC[C@H](C)[C@H](NC(=O)[C@@H]1CCCN1C(=O)[C@H](CC(C)C)NC(=O)[C@@H](NC(=O)[C@@H]1CCCN1C(=O)[C@H](CCCCN)NC(=O)[C@H](C)NC(=O)[C@H](CC(C)C)NC(=O)[C@H](CC(N)=O)NC(=O)[C@H](CC(N)=O)NC(=O)[C@@H](NC(=O)[C@H](CC(=O)O)NC(=O)[C@H](CC(N)=O)NC(=O)[C@H](CCC(=O)O)NC(=O)[C@H](CCSC)NC(=O)CN)[C@@H](C)O)[C@@H](C)O)C(=O)N[C@@H](CCCCN)C(=O)N[C@H](C(=O)N[C@@H](Cc1ccccc1)C(=O)N[C@@H](CCCNC(=N)N)C(=O)NCC(=O)N[C@@H](C)C(=O)N1CCC[C@H]1C(=O)N1CCC[C@H]1C(=O)N[C@@H](CC(N)=O)C(=O)N[C@@H](CO)C(=O)N[C@@H](Cc1ccccc1)C(=O)N[C@@H](CCC(=O)O)C(N)=O)[C@@H](C)O [PAR3-based] (H-GMENDTNNLAKPTLPIKTFRGAPPNSFE-NH2) | 2 | − | +++ (ultrafast processing within 2 min) |  |  |  | cleaved slowly |  | + (processing after 10 or 30 min) | − | 2 | +++ (ultrafast processing within 2 min) | +++ (ultrafast processing within 2 min) | 30 | No C- or N-terminal fragments could be detected | trend towards an increase of the C-terminal fragment
